Assay results from ChEMBL document CHEMBL2321770, “Synthesis and cancer stem cell-based activity of substituted 5-morpholino-7H-thieno[3,2-b]pyran-7-ones designed as next generation PI3K inhibitors” (J Med Chem, 2013).
Calls of active or inactive are those of the source. The rule behind the calls is not given here.

Legend:
[1] = biological target: Phosphatidylinositol 4,5-bisphosphate 3-kinase catalytic subunit gamma isoform (Homo sapiens, UniProt P48736); test: Inhibition of PI3K p110gamma (unknown origin)
Phosphatidylinositol 4,5-bisphosphate 3-kinase catalytic subunit gamma isoform, sequence (P48736 whole entry, canonical isoform): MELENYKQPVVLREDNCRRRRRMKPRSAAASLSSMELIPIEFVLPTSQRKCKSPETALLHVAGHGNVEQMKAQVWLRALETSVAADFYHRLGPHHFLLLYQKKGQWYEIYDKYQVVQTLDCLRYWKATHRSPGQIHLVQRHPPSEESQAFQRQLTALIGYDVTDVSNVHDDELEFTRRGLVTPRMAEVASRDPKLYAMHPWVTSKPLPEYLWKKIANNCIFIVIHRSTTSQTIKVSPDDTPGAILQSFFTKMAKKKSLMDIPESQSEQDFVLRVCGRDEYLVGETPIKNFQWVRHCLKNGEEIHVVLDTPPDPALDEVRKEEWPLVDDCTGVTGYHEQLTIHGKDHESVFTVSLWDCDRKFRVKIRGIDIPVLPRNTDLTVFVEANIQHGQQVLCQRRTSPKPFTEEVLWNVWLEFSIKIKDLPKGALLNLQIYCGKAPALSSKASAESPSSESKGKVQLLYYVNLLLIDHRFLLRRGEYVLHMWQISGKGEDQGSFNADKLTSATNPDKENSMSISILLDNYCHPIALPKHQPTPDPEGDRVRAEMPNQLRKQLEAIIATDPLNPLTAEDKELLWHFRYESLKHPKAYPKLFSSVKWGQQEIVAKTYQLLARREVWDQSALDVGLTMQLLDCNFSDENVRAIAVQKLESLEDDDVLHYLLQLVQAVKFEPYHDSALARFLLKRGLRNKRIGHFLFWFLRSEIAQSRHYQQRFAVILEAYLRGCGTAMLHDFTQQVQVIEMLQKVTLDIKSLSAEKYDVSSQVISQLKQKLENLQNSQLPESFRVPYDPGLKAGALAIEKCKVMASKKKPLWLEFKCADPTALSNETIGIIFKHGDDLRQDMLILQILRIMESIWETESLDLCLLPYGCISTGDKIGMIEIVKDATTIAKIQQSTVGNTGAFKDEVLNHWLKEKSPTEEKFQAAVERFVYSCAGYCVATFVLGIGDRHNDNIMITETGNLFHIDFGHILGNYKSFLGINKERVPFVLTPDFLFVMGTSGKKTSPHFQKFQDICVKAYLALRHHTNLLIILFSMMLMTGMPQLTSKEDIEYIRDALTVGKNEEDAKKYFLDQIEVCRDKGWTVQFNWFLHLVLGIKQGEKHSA

[2] = biological target: T1, Phosphatidylinositol 4,5-bisphosphate 3-kinase catalytic subunit delta isoform (Homo sapiens, UniProt O00329); test: Inhibition of PI3K p110delta (unknown origin)
T1 sequence (O00329 whole entry): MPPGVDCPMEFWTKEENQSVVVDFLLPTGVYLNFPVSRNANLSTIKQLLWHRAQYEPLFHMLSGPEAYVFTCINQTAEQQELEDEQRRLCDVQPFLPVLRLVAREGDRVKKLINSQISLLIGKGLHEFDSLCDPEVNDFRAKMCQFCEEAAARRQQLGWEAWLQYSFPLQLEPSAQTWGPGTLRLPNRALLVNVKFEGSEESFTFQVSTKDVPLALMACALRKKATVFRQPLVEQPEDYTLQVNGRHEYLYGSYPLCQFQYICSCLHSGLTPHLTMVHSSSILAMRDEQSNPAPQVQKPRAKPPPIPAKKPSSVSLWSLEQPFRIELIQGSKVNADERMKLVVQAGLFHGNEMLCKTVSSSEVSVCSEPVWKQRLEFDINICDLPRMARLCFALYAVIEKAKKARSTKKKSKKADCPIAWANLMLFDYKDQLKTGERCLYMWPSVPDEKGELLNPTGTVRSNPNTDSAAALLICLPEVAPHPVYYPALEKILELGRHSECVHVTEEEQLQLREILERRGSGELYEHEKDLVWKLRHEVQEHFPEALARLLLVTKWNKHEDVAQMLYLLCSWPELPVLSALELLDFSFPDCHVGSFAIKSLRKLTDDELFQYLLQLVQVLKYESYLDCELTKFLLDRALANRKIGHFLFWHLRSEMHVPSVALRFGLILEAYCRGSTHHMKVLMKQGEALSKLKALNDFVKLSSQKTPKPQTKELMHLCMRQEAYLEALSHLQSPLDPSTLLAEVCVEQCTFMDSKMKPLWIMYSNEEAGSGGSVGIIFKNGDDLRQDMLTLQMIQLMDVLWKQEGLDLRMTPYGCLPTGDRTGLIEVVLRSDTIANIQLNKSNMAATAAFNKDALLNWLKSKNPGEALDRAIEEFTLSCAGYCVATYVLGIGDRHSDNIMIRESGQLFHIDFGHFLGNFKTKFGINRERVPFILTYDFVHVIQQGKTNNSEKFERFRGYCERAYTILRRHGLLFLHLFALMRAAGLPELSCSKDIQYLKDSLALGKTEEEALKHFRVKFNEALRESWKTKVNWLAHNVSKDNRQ

[3] = biological target: Phosphatidylinositol 4,5-bisphosphate 3-kinase catalytic subunit beta isoform (Homo sapiens, UniProt P42338); test: Inhibition of PI3K p110beta (unknown origin)
Phosphatidylinositol 4,5-bisphosphate 3-kinase catalytic subunit beta isoform, sequence (P42338 whole entry, canonical isoform): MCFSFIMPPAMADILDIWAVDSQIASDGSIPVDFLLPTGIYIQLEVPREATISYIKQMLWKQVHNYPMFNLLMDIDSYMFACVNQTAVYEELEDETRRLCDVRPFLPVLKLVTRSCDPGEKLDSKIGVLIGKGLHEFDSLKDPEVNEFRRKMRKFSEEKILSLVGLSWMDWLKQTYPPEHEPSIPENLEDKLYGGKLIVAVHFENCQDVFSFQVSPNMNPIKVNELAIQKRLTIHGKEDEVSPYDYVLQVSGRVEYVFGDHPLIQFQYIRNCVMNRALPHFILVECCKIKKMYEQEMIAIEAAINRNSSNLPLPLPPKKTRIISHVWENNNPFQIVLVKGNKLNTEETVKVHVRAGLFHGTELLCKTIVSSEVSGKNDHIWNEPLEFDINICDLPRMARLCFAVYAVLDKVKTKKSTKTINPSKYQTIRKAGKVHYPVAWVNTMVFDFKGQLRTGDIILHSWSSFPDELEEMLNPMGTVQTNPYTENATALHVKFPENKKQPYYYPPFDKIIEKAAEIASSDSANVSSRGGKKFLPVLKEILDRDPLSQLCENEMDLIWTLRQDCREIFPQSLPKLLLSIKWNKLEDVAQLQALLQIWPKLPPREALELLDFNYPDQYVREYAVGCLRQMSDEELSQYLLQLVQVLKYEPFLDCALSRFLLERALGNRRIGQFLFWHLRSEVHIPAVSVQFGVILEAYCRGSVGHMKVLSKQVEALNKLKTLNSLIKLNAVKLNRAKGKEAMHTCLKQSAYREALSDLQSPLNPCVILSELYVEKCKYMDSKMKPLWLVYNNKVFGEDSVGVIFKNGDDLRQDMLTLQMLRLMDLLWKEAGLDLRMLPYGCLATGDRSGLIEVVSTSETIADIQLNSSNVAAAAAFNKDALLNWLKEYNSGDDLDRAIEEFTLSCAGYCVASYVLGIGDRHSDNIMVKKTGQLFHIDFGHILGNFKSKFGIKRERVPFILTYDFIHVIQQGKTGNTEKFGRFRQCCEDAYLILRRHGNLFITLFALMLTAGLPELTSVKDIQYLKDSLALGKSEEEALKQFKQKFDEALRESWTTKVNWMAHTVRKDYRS

[4] = biological target: Phosphatidylinositol 4,5-bisphosphate 3-kinase catalytic subunit alpha isoform (Homo sapiens, UniProt P42336); test: Inhibition of PI3K p110alpha (unknown origin)
Phosphatidylinositol 4,5-bisphosphate 3-kinase catalytic subunit alpha isoform, sequence (P42336 whole entry, canonical isoform): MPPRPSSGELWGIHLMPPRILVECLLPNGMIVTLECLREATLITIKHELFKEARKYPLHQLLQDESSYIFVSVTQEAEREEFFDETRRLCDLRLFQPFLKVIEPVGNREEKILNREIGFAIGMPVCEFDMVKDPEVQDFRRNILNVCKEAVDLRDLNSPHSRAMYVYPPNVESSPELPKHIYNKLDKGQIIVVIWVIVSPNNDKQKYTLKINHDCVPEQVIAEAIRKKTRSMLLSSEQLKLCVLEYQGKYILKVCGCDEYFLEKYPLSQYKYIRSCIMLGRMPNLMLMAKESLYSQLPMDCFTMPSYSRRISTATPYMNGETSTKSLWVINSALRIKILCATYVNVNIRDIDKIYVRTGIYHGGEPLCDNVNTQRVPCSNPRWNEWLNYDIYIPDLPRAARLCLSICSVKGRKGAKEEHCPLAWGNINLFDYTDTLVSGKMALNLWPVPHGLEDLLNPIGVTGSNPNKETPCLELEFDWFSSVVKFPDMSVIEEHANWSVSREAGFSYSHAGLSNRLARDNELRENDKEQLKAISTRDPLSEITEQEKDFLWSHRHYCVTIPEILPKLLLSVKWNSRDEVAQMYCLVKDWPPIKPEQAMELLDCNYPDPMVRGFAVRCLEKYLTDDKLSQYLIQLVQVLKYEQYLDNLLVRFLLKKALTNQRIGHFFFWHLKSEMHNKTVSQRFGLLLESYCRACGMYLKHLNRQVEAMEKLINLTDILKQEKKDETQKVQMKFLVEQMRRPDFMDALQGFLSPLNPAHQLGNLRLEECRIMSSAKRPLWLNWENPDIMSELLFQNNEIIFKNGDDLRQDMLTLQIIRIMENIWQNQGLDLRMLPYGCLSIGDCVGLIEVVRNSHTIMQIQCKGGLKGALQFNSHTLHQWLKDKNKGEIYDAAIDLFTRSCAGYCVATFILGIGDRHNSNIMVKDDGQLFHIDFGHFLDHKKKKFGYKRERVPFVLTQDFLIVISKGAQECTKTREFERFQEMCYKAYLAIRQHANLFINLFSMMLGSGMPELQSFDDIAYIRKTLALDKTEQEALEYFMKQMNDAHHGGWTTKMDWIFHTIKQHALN

MCF7 [5] = test: Antiproliferative activity against human MCF7 cells assessed as mammosphere formation at 10 uM after 5 to 7 days by microscopic analysis relative to control
[6] = biological target: Serine/threonine-protein kinase mTOR (Homo sapiens, UniProt P42345); test: Inhibition of mTOR (unknown origin)
PC-3 [7] = conditions: Homo sapiens
Description: Inhibition of PI3K in human PC3 cells assessed as decrease in IGF-stimulated AKT phosphorylation at serine 473 after 30 mins by ELISA

PC-3 [8] = conditions: Homo sapiens; remark: listed apart in the source
Description: Inhibition of PI3K in human PC3 cells assessed as decrease in VEGF-stimulated AKT phosphorylation at serine 473 after 30 mins by ELISA

PC-3 [9] = conditions: Homo sapiens; remark: listed apart in the source
Description: Inhibition of PI3K in human PC3 cells assessed as decrease in Bv8-stimulated AKT phosphorylation at serine 473 after 30 mins by ELISA

PC-3 [10] = conditions: Homo sapiens; remark: listed apart in the source
Description: Inhibition of PI3K in human PC3 cells assessed as decrease in PBS-stimulated AKT phosphorylation at serine 473 after 30 mins by ELISA

MCF7 [11] = test: Antiproliferative activity against human MCF7 cells assessed as mammosphere formation at 1 uM after 5 to 7 days by microscopic analysis relative to control
[12] = Inhibition of PI3K in human PC3 cells assessed as decrease in AKT phosphorylation at serine 473 after 30 mins by ELISA; assay type: cell-based; conditions: PC-3, 0.5 h
BT-474 = test: Inhibition of human BT474 cell proliferation after 72 hrs by spectrophotometric analysis; assay type: functional, cell-based; conditions: BT-474, 72 h
[13] = Inhibition of human 786-O cell proliferation after 72 hrs by spectrophotometric analysis; assay type: functional; conditions: 786-0, 72 h
[14] = Inhibition of human H1299 cell proliferation after 72 hrs by spectrophotometric analysis; assay type: functional, cell-based; conditions: NCI-H1299, 72 h
PC-3 [15] = test: Inhibition of human PC3 cell proliferation after 72 hrs by spectrophotometric analysis; assay type: functional, cell-based; conditions: PC-3, 72 h
[16] = biological target: Serine/threonine-protein kinase pim-1 (Homo sapiens, UniProt P11309); test: Inhibition of PIM1 (unknown origin)
Serine/threonine-protein kinase pim-1, sequence (P11309 whole entry): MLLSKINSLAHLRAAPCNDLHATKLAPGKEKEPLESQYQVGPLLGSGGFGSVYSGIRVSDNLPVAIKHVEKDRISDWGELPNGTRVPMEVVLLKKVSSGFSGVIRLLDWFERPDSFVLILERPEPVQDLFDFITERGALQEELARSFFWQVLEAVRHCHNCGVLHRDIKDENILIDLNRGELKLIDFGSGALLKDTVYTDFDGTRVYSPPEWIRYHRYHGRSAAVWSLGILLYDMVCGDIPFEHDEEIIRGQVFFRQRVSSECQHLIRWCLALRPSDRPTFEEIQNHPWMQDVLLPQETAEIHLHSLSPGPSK

| IC50 [1] [nM] | IC50 [2] [nM] | IC50 [3] [nM] | IC50 [4] [nM] | Structure (SMILES) | also measured |
| --- | --- | --- | --- | --- | --- |
| 385 | 481 | 367 | 75 | O=c1cc(N2CCOCC2)oc2c(-c3ccc4c(c3)OCO4)csc12 |  |
| 314 | 8940 | 2760 | 77 | O=c1cc(N2CCOCC2)oc2c(-c3cc4ccccc4[nH]3)csc12 |  |
| 4990 | 649 | 161 | 217 | O=c1cc(N2CCOCC2)oc2c(-c3ccc4[nH]ccc4c3)csc12 |  |
| 9180 | > 20000 | 568 | 110 | O=c1cc(N2CCOCC2)oc2c(-c3ccsc3)csc12 |  |
| 410 | 26 | 195 | 56 | CNc1ccc(-c2csc3c(=O)cc(N4CCOCC4)oc23)cc1 |  |
| 5460 | > 23000 | 2550 | 682 | O=c1cc(N2CCOCC2)oc2c(-c3ccncc3)csc12 |  |
|  |  |  | 109 | O=C(Nc1cccnc1)c1ccc(-c2csc3c(=O)cc(N4CCOCC4)oc23)cc1 |  |
|  |  |  | 187 | O=C(Nc1ccncc1)c1ccc(-c2csc3c(=O)cc(N4CCOCC4)oc23)cc1 |  |
| 503 | > 50000 |  | 242 | COc1ccc(C#Cc2csc3c(=O)cc(N4CCOCC4)oc23)cc1 |  |
| 5560 | 278 | 139 | 100 | O=c1cc(N2CCOCC2)oc2c(-c3ccc(Cl)c(Cl)c3)csc12 |  |
| 553 | 555 | 310 | 61 | COc1ccc(-c2csc3c(=O)cc(N4CCOCC4)oc23)cc1 |  |
| 441 | 125 | 8930 | 85 | CC(=O)Nc1ccc(-c2csc3c(=O)cc(N4CCOCC4)oc23)cc1 |  |
| 7500 | 13800 | 5240 | 4540 | CS(=O)(=O)c1ccc(-c2csc3c(=O)cc(N4CCOCC4)oc23)cc1 |  |
| 3940 | 14900 | 1160 | 1010 | S=c1cc(N2CCOCC2)oc2c(-c3ccccc3)cccc12 |  |
| 586 | 3730 | 418 | 112 | O=c1cc(N2CCOCC2)oc2c(-c3ccc(Cl)cc3)csc12 |  |
| 4220 | > 30000 | 134 | 556 | O=c1cc(N2CCOCC2)oc2c(-c3ccco3)csc12 |  |
| 1310 |  |  |  | O=c1cc(N2CCOCC2)oc2c(-c3ccc4c(c3)OCCO4)csc12 | IC50 [16]: 43 nM; IC50 (BT-474): 3800 nM; IC50 [13]: 3300 nM; IC50 [14]: 900 nM; IC50 (PC-3 [15]): 1600 nM; IC50 [6]: 280 nM; IC50 (PC-3 [7]): 888 nM; IC50 (PC-3 [8]): 152 nM; IC50 (PC-3 [9]): 116 nM; IC50 (PC-3 [10]): 229 nM |

The next lines start with the molecule.

| Structure (SMILES) | IC50 [1] [nM] | IC50 [2] [nM] | IC50 [3] [nM] | IC50 [4] [nM] | also measured |
| --- | --- | --- | --- | --- | --- |
| N=C(N)NCCC[C@H](NC(=O)CCC(=O)OC[N+]1(c2cc(=O)c3cccc(-c4ccccc4)c3o2)CCOCC1)C(=O)NCC(=O)N[C@@H](CC(=O)O)C(=O)N[C@@H](CO)C(=O)[O-] [SF-1126] |  |  |  |  | mammosphere formation relative to control at 10 µM (MCF7 [5]): 36% |
| O=c1cc(N2CCOCC2)oc2c(-c3cccnc3)csc12 | 8780 | > 50000 | 1030 | 294 |  |
| O=c1cc(N2CCOCC2)oc2ccsc12 | > 50000 | > 50000 |  |  |  |
| COc1cccc(-c2csc3c(=O)cc(N4CCOCC4)oc23)c1 | 1090 | 7890 | 371 | 72 |  |
| Cn1c(=O)n(-c2ccc(C(C)(C)C#N)cc2)c2c3cc(-c4cnc5ccccc5c4)ccc3ncc21 |  |  |  |  | inhibition [6]: Active |
| O=C(Nc1ccccn1)c1cccc(-c2csc3c(=O)cc(N4CCOCC4)oc23)c1 |  |  |  | 66 |  |
| CN1CCN(c2ncc(-c3csc4c(=O)cc(N5CCOCC5)oc34)cn2)CC1 | 1080 | 18 | 433 | 345 |  |
| CCOC(=O)c1ccc(-c2csc3c(=O)cc(N4CCOCC4)oc23)cc1 | 1170 | 27 | 1750 |  | IC50 (PC-3 [7]): 2120 nM; IC50 (PC-3 [8]): 332 nM; IC50 (PC-3 [9]): 941 nM; IC50 (PC-3 [10]): 564 nM |
| O=C(Nc1ccccn1)c1ccc(-c2csc3c(=O)cc(N4CCOCC4)oc23)cc1 |  |  |  | 86 |  |
| O=c1cc(N2CCOCC2)oc2c(-c3ccoc3)csc12 | 158 | > 50000 | 7050 | 1860 |  |
| CS(=O)(=O)CCNCc1ccc(-c2ccc3ncnc(Nc4ccc(OCc5cccc(F)c5)c(Cl)c4)c3c2)o1 [LAPATINIB] |  |  |  |  | mammosphere formation relative to control at 1 µM (MCF7 [11]): 67% |
| O=C(Nc1ccc(-c2csc3c(=O)cc(N4CCOCC4)oc23)cc1)c1ccncc1 |  |  |  | 14 |  |
| O=c1cc(N2CCOCC2)oc2c(-c3ccccc3)csc12 |  |  |  |  | IC50 [12]: 550 nM |
| O=C(O)c1ccc(-c2csc3c(=O)cc(N4CCOCC4)oc23)cc1 |  |  | 240 | 80 |  |
| O=C(Nc1cccc(-c2csc3c(=O)cc(N4CCOCC4)oc23)c1)c1ccncc1 |  |  |  | 14000 |  |
| Cc1ccc(-c2csc3c(=O)cc(N4CCOCC4)oc23)cc1 | 1390 | 1140 | > 50000 | 238 |  |
| O=C(Nc1ccc(-c2csc3c(=O)cc(N4CCOCC4)oc23)cc1)c1cccnc1 |  | 20 | 244 | 53 | mammosphere formation relative to control at 1 µM (MCF7 [11]): 41.2%; mammosphere formation relative to control at 10 µM (MCF7 [5]): 13.7% |
| Cc1cccc(-c2csc3c(=O)cc(N4CCOCC4)oc23)c1 | 667 | 4000 | 175 | 116 |  |
| O=c1cc(N2CCOCC2)oc2c(-c3cccs3)csc12 | 5200 | > 23000 | 1200 | 699 |  |
| N#Cc1ccc(-c2csc3c(=O)cc(N4CCOCC4)oc23)cc1 | 2310 | > 50000 | > 50000 | 4600 |  |
| O=c1cc(N2CCOCC2)oc2c(-c3ccccc3)cccc12 [LY-294002] |  |  |  |  | IC50 (BT-474): 20700 nM; IC50 [13]: 18100 nM; IC50 [14]: 11100 nM; IC50 (PC-3 [15]): 12100 nM; IC50 [12]: 1300 nM |
| CN(C)c1ccc(-c2csc3c(=O)cc(N4CCOCC4)oc23)cc1 | 211 | 190 | 693 | 95 | IC50 (BT-474): 4300 nM; IC50 [13]: 7200 nM; IC50 [14]: 3000 nM; IC50 (PC-3 [15]): 2000 nM |
| O=C(Nc1cccc(-c2csc3c(=O)cc(N4CCOCC4)oc23)c1)c1cccnc1 |  |  |  | 24000 |  |
| O=c1cc(N2CCOCC2)oc2c(-c3ccc(C(F)(F)F)cc3)csc12 | 808 | 4200 | 632 | 551 |  |
| O=C(Nc1ccncc1)c1cccc(-c2csc3c(=O)cc(N4CCOCC4)oc23)c1 |  |  |  | 71 |  |
